The results in this text go back to patent US7691861B2, “Indolymaleimide derivatives” (Novartis AG, priority 2004, dated 2010).

The target of one test is T1, Human recombinant PKCε (Homo sapiens, UniProt Q02156).
T1 construct: purchased Oxford Biomedical Research
T1 sequence (Q02156 1-737): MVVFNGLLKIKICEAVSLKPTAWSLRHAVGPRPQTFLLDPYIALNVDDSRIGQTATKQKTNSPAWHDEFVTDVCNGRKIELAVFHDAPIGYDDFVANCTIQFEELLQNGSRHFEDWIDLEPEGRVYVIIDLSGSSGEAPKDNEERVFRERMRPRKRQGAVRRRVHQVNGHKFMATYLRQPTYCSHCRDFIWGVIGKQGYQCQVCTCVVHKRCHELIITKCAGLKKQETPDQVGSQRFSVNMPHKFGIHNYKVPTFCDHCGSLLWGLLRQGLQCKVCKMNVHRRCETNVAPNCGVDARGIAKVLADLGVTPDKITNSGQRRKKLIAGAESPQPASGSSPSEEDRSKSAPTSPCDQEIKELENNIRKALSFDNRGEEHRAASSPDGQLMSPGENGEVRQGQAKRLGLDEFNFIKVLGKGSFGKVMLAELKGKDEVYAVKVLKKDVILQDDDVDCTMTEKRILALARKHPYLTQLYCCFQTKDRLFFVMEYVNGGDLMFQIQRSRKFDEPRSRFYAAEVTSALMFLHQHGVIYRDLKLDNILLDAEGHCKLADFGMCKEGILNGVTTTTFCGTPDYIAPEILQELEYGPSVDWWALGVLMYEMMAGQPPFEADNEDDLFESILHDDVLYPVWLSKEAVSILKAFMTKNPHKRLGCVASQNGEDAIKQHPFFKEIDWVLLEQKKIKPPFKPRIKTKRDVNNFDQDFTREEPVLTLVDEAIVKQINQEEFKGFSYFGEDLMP
Kind of test: Protein Kinase Cε Assay. It is filed as biochemical. As to conditions: 10 μM 33P-ATP. The protocol:
(§1) The compounds of the invention are tested for their activity on different PKC isoforms according to the following method. Assay is performed in a white with clear bottom 384-well microtiterplate with non-binding surface. The reaction mixture (25 μl) contains 1.5 μM of a tridecapeptide acceptor substrate that mimics the pseudo substrate sequence of PKC α with the Ala→Ser replacement, 10 μM ^33P-ATP, 10 mM Mg(NO3)2, 0.2 mM CaCl2, […] at a protein concentration varying from 25 to 400 ng/ml (depending on the isotype used), lipid vesicles (containing 30 mol % phosphatidylserine, 5 mol % DAG and 65 mol % phosphatidylcholine) at a final lipid concentration of 0.5 mM, in 20 mM Tris-HCl buffer pH 7.4+0.1% BSA. Incubation is performed for 60 min at room temperature.
Human recombinant PKCε is obtained from Oxford Biomedical Research and is used under the assay conditions as described under Section A.1 above.

Another test deals with T2, Human recombinant PKCα (Homo sapiens, UniProt P17252).
T2 construct: purchased Oxford Biomedical Research
The test is described as follows: Protein Kinase Cα Assay. It is filed as biochemical. As to conditions: 10 μM 33P-ATP. As to the method:
as §1
Human recombinant PKCα is obtained from Oxford Biomedical Research and is used under the assay conditions as described under Section A.1 above.

A further test concerns the target T3, Human recombinant PKCδ (Homo sapiens, UniProt Q05655).
T3 construct: purchased Oxford Biomedical Research
Kind of test: Protein Kinase Cδ Assay. It is filed as biochemical. As to conditions: 10 μM 33P-ATP. As to the method: as §1
Human recombinant PKCδ is obtained from Oxford Biomedical Research and is used under the assay conditions as described under Section A.1 above.

The target in the next test is T4, Human recombinant PKCη (Homo sapiens, UniProt P24723).
T4 construct: purchased PanVera
The test is described as follows: Protein Kinase Cη Assay. It is filed as biochemical. As to conditions: 10 μM 33P-ATP. As to the method: as §1
Human recombinant PKCη is obtained from PanVera and is used under the assay conditions as described under Section A.1 above.

For test [1], the system named is Jurkat cells transfected with a human interleukin-2 promoter/reporter gene construct. Kind of test: CD28 Costimulation Assay. To be noted: IL-2 promoter luciferase reporter, 5.5 hours, read-out: IC50, inhibition of anti-T cell receptor/anti-CD28 and PMA/ionomycin stimulated Jurkat cells. It is filed as cell-based. The protocol: The assay is performed with Jurkat cells transfected with a human interleukin-2 promoter/reporter gene construct as described by Baumann G et al. in Transplant. Proc. 1992; 24:43-8, the β-galactosidase reporter gene being replaced by the luciferase gene (de Wet J., et al., Mol. Cell. Biol. 1987, 7(2), 725-737). Cells are stimulated by solid phase-coupled antibodies or phorbol myristate acetate (PMA) and the Ca^++ ionophore ionomycin as follows. For antibody-mediated stimulation Microlite TM1 microtiter plates (Dynatech) are coated with 3 μg/ml goat anti-mouse IgG Fc antibodies (Jackson) in 55 μl phosphate-buffered saline (PBS) per well for three hours at RT. Plates are blocked after removing the antibodies by incubation with 2% bovine serum albumin (BSA) in PBS (300 μl per well) for 2 hours at RT. […] After incubation for 5.5 hours at 37° C. in 5% CO2, the level of luciferase is determined by bioluminescence measurement. […] Luciferase activity is assessed with a bioluminescence reader (Labsystem, Helsinki, Finland) after automatic addition of 50 μl per well luciferase reaction buffer containing 20 mM Tricine, 1.07 mM (MgCO3)4Mg(OH)2×5H2O, 2.67 mM MgSO4, 0.1 mM EDTA, 33.3 mM DTT, 270 μM coenzyme A, 470 μM luciferin (Chemie Brunschwig AG), 530 μM ATP, pH 7.8. […] The inhibition obtained in the presence of a test compound is calculated as percent inhibition of the high control.
A general note: A reporter such as luciferase makes a cellular process visible.

The subject of test [2] is spleen cells from CBA and BALB/c mice. The test is described as follows: Allogeneic Mixed Lymphocyte Reaction (MLR). It is filed as cell-based. To be noted: CBA and BALB/c mouse spleen cells, 3H-thymidine incorporation after four days, read-out: IC50, inhibition of proliferation in two-way MLR. As to the method: Briefly, spleen cells from CBA and BALB/c mice (1.6×10^5 cells from each strain per well in flat bottom tissue culture microtiter plates, 3.2×10^5 in total) are incubated in RPMI medium containing 10% FCS, 100 U/ml penicillin, 100 μg/ml streptomycin (Gibco BRL, Basel, Switzerland), 50 μM 2-mercaptoethanol (Fluka, Buchs, Switzerland) and serially diluted compounds. Seven three-fold dilution steps in duplicates per test compound are performed. After four days of incubation 1 μCi ^3H-thymidine is added. Cells are harvested after an additional five-hour incubation period, and incorporated ^3H-thymidine is determined according to standard procedures. Background values (low control) of the MLR are the proliferation of BALB/c cells alone. Low controls are subtracted from all values. High controls without any sample are taken as 100% proliferation.
Background: Incorporation of labelled thymidine or its analogues reports DNA synthesis.

A further test has as its target T5, Human recombinant PKCβ1 (Homo sapiens, UniProt P05771).
T5 construct: purchased Oxford Biomedical Research
Kind of test: Protein Kinase Cβ1 Assay. As to conditions: human recombinant PKCβ1, 10 μM 33P-ATP. It is filed as biochemical. The protocol:
as §1
Human recombinant PKCβ1 is obtained from Oxford Biomedical Research and is used under the assay conditions as described under Section A.1 above.

In a further test the target is Human recombinant PKCθ (Homo sapiens, UniProt Q04759). Kind of test: Protein Kinase Cθ Assay. To be noted: 10 μM 33P-ATP. It is filed as biochemical. As to the method:
as §1
Human recombinant PKCθ is used under the assay conditions as described above.

Structures are written as SMILES.

T3 sequence (Q05655 whole entry): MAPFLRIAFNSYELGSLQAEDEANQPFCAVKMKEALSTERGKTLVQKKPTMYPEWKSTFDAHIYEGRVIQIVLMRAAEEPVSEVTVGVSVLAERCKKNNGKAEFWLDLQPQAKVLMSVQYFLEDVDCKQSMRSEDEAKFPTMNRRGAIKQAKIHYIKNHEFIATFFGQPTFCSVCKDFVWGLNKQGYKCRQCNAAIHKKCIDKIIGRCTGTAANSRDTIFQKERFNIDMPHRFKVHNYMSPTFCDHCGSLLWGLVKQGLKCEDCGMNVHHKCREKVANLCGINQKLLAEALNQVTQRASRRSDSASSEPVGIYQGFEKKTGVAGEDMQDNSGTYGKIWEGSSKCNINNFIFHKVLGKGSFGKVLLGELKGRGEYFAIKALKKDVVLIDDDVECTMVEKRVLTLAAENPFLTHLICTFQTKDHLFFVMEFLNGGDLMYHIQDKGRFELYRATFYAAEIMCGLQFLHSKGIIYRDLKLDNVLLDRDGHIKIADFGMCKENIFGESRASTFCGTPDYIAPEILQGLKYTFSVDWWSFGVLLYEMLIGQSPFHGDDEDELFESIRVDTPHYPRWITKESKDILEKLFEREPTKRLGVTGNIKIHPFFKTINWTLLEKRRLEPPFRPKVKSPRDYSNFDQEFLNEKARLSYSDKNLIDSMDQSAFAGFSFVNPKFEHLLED
T4 sequence (P24723 whole entry): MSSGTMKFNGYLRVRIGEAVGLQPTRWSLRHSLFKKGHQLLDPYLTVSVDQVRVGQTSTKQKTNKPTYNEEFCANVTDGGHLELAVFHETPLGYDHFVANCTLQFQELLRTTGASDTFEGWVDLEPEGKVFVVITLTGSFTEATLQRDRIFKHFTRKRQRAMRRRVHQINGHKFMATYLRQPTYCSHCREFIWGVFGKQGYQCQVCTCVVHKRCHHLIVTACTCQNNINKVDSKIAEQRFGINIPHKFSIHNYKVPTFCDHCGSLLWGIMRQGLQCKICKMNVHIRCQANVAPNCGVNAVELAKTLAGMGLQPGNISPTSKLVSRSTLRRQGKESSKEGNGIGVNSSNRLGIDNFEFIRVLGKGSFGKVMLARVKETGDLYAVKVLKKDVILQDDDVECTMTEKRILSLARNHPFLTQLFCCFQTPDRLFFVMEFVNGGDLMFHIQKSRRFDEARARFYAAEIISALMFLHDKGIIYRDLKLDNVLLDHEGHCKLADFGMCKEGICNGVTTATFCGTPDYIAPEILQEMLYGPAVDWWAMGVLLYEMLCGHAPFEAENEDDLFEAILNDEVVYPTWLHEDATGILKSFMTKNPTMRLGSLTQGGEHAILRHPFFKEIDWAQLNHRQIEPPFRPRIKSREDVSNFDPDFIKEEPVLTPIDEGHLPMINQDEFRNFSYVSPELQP
Sequence of Human recombinant PKCθ (Q04759 whole entry): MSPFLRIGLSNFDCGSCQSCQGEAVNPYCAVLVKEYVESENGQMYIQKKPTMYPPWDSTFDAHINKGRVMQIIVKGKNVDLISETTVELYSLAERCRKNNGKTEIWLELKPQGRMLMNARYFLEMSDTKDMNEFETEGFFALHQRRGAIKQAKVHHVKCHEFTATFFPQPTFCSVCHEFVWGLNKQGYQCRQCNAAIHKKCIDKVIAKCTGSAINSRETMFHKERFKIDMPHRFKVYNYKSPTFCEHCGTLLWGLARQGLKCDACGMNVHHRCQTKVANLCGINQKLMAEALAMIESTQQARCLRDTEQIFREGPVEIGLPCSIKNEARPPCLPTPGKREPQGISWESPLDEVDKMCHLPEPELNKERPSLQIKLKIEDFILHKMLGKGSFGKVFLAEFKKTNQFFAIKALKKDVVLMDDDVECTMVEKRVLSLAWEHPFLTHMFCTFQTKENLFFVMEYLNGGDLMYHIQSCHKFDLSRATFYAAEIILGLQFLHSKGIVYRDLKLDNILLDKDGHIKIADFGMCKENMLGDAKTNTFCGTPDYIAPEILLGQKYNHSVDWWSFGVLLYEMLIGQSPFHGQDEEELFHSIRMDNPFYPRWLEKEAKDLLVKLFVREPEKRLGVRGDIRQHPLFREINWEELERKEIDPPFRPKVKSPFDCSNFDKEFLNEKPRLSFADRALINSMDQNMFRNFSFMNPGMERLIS
T5 sequence (P05771 whole entry): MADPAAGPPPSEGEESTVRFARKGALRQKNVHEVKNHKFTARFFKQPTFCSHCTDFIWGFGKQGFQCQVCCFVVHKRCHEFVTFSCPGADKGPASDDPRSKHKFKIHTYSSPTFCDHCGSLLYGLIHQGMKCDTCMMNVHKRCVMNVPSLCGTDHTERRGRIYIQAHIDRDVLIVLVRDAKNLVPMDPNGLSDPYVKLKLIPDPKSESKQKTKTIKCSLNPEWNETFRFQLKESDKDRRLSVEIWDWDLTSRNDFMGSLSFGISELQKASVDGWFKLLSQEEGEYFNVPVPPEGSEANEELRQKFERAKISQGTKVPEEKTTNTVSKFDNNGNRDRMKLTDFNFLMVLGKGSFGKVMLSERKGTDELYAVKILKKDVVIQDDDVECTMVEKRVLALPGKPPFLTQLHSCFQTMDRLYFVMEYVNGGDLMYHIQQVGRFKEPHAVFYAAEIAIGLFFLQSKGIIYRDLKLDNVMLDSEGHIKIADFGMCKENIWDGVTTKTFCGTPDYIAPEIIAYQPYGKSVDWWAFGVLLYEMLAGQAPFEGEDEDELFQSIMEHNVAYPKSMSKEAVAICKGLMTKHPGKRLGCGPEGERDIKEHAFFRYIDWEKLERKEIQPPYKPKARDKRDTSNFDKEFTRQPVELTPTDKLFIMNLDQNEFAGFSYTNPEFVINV

As for `CNCc1ccc2c(C3=C(c4c[nH]c5ccccc45)C(=O)NC3=O)c(Cl)ccc2c1` [example 6], the IC50 at Human recombinant PKCε was 2.3 nM; at Human recombinant PKCα, 1.1 nM.
Turning to `CN(C)Cc1ccc2c(C3=C(c4c[nH]c5ccccc45)C(=O)NC3=O)c(Cl)ccc2c1` [example 4], the IC50 is 9.4 nM on Human recombinant PKCδ and 7.2 nM at Human recombinant PKCη.
Regarding `Cc1cccc2c(C3=C(c4c(Cl)ccc5cc(CN(C)C)ccc45)C(=O)NC3=O)c[nH]c12` [example 5], the IC50 in test [1] is 11.5 nM; in test [2], 183 nM; at Human recombinant PKCα, 0.9 nM; on Human recombinant PKCδ, 4.5 nM; on Human recombinant PKCβ1 it was 2.3 nM.
In the case of `CNCc1ccc2c(C3=C(c4c[nH]c5c(C)cccc45)C(=O)NC3=O)c(Cl)ccc2c1` [example 7], the IC50 in test [1] was 27.5 nM; at Human recombinant PKCθ, 6.4 nM; in test [2], 528 nM; at Human recombinant PKCβ1, 2.8 nM.
In the case of `Cc1cccc2c(C3=C(c4cccc5cc(CN)ccc45)C(=O)NC3=O)c[nH]c12` [example 3], on Human recombinant PKCη, the IC50 is 53.9 nM.
For `CN(C)Cc1ccc2c(C3=C(c4cn(C)c5ccccc45)C(=O)NC3=O)c(Cl)ccc2c1` [example 1, 3-(2-Chloro-6-dimethylaminomethyl-naphthalen-1-yl)-4-(1-methyl-1H-indol-3-yl)-pyrrole-2,5-dione], the IC50 on Human recombinant PKCθ came out at 19.2 nM; on Human recombinant PKCε, 17.6 nM.
